Measurements as given in patent US20140171404A1, “Autotaxin inhibitors” (NOVARTIS AG, priority 2012, published 2014).

What follows are compounds tested against T1, Recombinant human ATX (Homo sapiens, UniProt Q13822) (assay: Assessing ATX inhibition: released choline, Amplex Red fluorescence). Details: ATX 10 nM, LPC 18:1 10 μM, pre-incubated with ATX at 37° C. for 20 minutes; Table 1, exemplified compounds; read-out: IC50.
T1 construct: made in house; host or cells: human embryonic kidney (HEK) cells
Format: biochemical
Method: LPC (oleoyl (18:1)) was purchased from Avanti Polar Lipids (Alabaster; AL) and solubilized in methanol to 20 mM. Amplex Red was obtained from Invitrogen Life Technologies (Paisley, UK) and dissolved in DMSO to 10 mM. Choline oxidase and horseradish peroxidase (HRP) were obtained from Sigma Aldrich (Dorset, UK) and dissolved in HBSS to 20 U/ml and 200 U/ml respectively. All reagents were stored at −20° C. in single use aliquots. All experimental measurements were performed in assay buffer made up immediately prior to use (HBSS, 0.01% BSA essentially fatty acid free).
Recombinant human ATX was prepared at Novartis (Basel, CH) in a human embryonic kidney (HEK) cell preparation, and stored in single use aliquots of […] (26 μM) stocks stored at −80° C.
All experimental measurements were performed in black 384 well polystyrene (low volume, round bottom, Corning (3676)) plates. PerkinElmer EnVision (Fluorescence Intensity/Absorbance Monochromator) or Tecan Infinite 200 PRO series plate reader was used to detect change in fluorescent intensity.
ATX activity was determined by measurement of released choline in reactions containing ATX (10 nM), choline oxidase (0.1 U/ml), HRP (100 U/ml), amplex red (50 μM) and LPC 18:1 (10 μM). Compounds of the invention were prepared as 10 point serial dilutions from 1 μM in duplicate and pre-incubated with ATX at 37° C. for 20 minutes prior to the addition of remaining reagents. The liberated choline was measured from changes in fluorescence intensity (λex 530 nm, λem 590 nm) of the product resurofin at 37° C. every 2 minutes over a 40-minute period. ATX activity was measured as a slope of the linear portion of the progress curve, typically between 14 to 24 minutes.
Slope data was exported to Graphpad prism (Graphpad software, San Diego, Calif.) where data was fitted to equation 1.
Y=Bottom+(Top−Bottom)/(1+10̂((Log IC50−X)*HillSlope)) Equation 1: […]

SMILES | IC50
CN(CCC1CCN(C(=O)OCc2cc(Cl)cc(Cl)c2)CC1)C(=O)c1cc(O)no1 [Example 1, 3,5-Dichlorobenzyl 4-(2-(3-hydroxy-N-methylisoxazole-5-carboxamido)ethyl) piperidine-1-carboxylate] | 644 nM
COc1c(N(C)CCC2CCN(C(=O)OCc3cc(Cl)cc(Cl)c3)CC2)c(=O)c1=O [Example 2] | 248 nM
CCOc1c(NCCC2CCN(C(=O)OCc3cc(Cl)cc(Cl)c3)CC2)c(=O)c1=O [Example 3] | 445 nM
O=C(OCc1cc(Cl)cc(Cl)c1)N1CCC(CCNc2c(O)c(=O)c2=O)CC1 [Example 4] | 728 nM
CC1CC(CNC(=O)CCc2cc(O)no2)CCN1C(=O)OCc1cc(Cl)cc(Cl)c1 (centres unmarked) [Example 5] | 313 nM
CN(CCC1CCN(C(=O)OCc2cc(Cl)cc(Cl)c2)CC1)C(=O)Cc1c[nH]nn1 [Example 6, 3,5-Dichlorobenzyl 4-(2-(N-methyl-2-(1H-1,2,3-triazol-4-yl)acetamido)ethyl)piperidine-1-carboxylate] | 62 nM
O=C(Cc1c[nH]nn1)NCCC1CCN(C(=O)OCc2cc(Cl)cc(Cl)c2)CC1 [Example 7, 3,5-Dichlorobenzyl 4-(2-(2-(1H-1,2,3-triazol-4-yl)acetamido)ethyl)piperidine-1-carboxylate] | 28 nM
Cc1oc(=O)[nH]c1C(=O)N(C)CCC1CCN(C(=O)OCc2cc(Cl)cc(Cl)c2)CC1 [Example 8, 3,5-Dichlorobenzyl 4-(2-(N,5-dimethyl-2-oxo-2,3-dihydrooxazole-4-carboxamido)ethyl)piperidine-1-carboxylate] | 360 nM
O=C(/C=C/c1c[nH]cn1)NC1CCN(C(=O)OCc2cc(Cl)cc(Cl)c2)CC1 [Example 9, (E)-3,5-Dichlorobenzyl 4-(3-(1H-imidazol-4-yl)acrylamido)piperidine-1-carboxylate] | 109 nM
O=C(O)CCCCC(=O)NC1CCN(C(=O)OCc2cc(Cl)cc(Cl)c2)CC1 [Example 10, 6-((1-(((3,5-Dichlorobenzyl)oxy)carbonyl)piperidin-4-yl)amino)-6-oxohexanoic acid] | 543 nM
CCOc1c(NCCC2CN(C(=O)OCc3cc(Cl)cc(Cl)c3)CCO2)c(=O)c1=O (centres unmarked) [Example 11, 3,5-Dichlorobenzyl 2-(2-((2-ethoxy-3,4-dioxocyclobut-1-en-1-yl)amino)ethyl)morpholine-4-carboxylate] | 51 nM
O=C(NCCC1CN(C(=O)OCc2cc(Cl)cc(Cl)c2)CCO1)c1c[nH]c(=O)o1 (centres unmarked) [Example 12, 3,5-Dichlorobenzyl 2-(2-(2-oxo-2,3-dihydrooxazole-5-carboxamido)ethyl)morpholine-4-carboxylate] | 520 nM
CN(CCC1CN(C(=O)OCc2cc(Cl)cc(Cl)c2)CCO1)C(=O)c1c[nH]c(=O)o1 (centres unmarked) [Example 13, 3,5-Dichlorobenzyl 2-(2-(N-methyl-2-oxo-2,3-dihydrooxazole-5-carboxamido)ethyl)morpholine-4-carboxylate] | 828 nM
CCOc1c(N(C)CCC2CN(C(=O)OCc3cc(Cl)cc(Cl)c3)CCO2)c(=O)c1=O (centres unmarked) [Example 14, 3,5-Dichlorobenzyl 2-(2-((2-ethoxy-3,4-dioxocyclobut-1-en-1-yl)(methyl)amino)ethyl)morpholine-4-carboxylate] | 540 nM
CN(CCC1CCN(C(=O)OCc2cc(Cl)cc(Cl)c2)CC1)C(=O)c1c[nH]c(=O)s1 [Example 15, 3,5-Dichlorobenzyl 4-(2-(N-methyl-2-oxo-2,3-dihydrothiazole-5-carboxamido)ethyl)piperidine-1-carboxylate] | 29 nM
O=C(NCCC1CCN(C(=O)OCc2cc(Cl)cc(Cl)c2)CC1)c1nn[nH]n1 [Example 16, 3,5-Dichlorobenzyl 4-(2-(2H-tetrazole-5-carboxamido)ethyl)piperidine-1-carboxylate] | 596 nM
O=C(CCCc1c[nH]nn1)NC1CCN(C(=O)OCc2cc(Cl)cc(Cl)c2)CC1 [Example 17, 3,5-Dichlorobenzyl 4-(4-(1H-1,2,3-triazol-4-yl)butanamido)piperidine-1-carboxylate] | 2 nM
CN(C(=O)CCCc1c[nH]nn1)C1CCN(C(=O)OCc2cc(Cl)cc(Cl)c2)CC1 [Example 18, 3,5-Dichlorobenzyl 4-(N-methyl-4-(1H-1,2,3-triazol-4-yl)butanamido)piperidine-1-carboxylate] | 94 nM
O=C(NCCC1CCN(C(=O)OCc2cc(Cl)cc(Cl)c2)CC1)c1c[nH]c(=O)o1 [Example 21, 3,5-Dichlorobenzyl 4-(2-(2-oxo-2,3-dihydrooxazole-5-carboxamido)ethyl)piperidine-1-carboxylate] | 106 nM
O=C(CCc1cc(O)no1)NCCC1CCN(C(=O)OCc2cc(Cl)cc(Cl)c2)CC1 [Example 22, 3,5-Dichlorobenzyl 4-(2-(3-(3-hydroxyisoxazol-5-yl)propanamido)ethyl)piperidine-1-carboxylate] | 586 nM
O=C(CCc1cc(O)no1)NC1CCN(C(=O)OCc2cc(Cl)cc(Cl)c2)CC1 [Example 23, 3,5-Dichlorobenzyl 4-(3-(3-hydroxyisoxazol-5-yl)propanamido)piperidine-1-carboxylate] | 396 nM
CN(CCC1CCN(C(=O)OCc2cc(Cl)cc(Cl)c2)CC1)C(=O)c1coc(=O)[nH]1 [Example 24, 3,5-Dichlorobenzyl 4-(2-(N-methyl-2-oxo-2,3-dihydrooxazole-4-carboxamido)ethyl)piperidine-1-carboxylate] | 624 nM
CN(CCC1CCN(C(=O)OCc2cc(Cl)cc(Cl)c2)CC1)C(=O)c1cc(O)[nH]n1 [Example 25, 3,5-Dichlorobenzyl 4-(2-(5-hydroxy-N-methyl-1H-pyrazole-3-carboxamido)ethyl)piperidine-1-carboxylate] | 520 nM
CN(CCCN1CCN(C(=O)OCc2cc(Cl)cc(Cl)c2)CC1)C(=O)c1c[nH]c(=O)o1 [Example 26, 3,5-Dichlorobenzyl 4-(3-(N-methyl-2-oxo-2,3-dihydrooxazole-5-carboxamido)propyl)piperazine-1-carboxylate] | 156 nM
O=C(NCCN1CCN(C(=O)OCc2cc(Cl)cc(Cl)c2)CC1)c1c[nH]c(=O)o1 [Example 27, 3,5-Dichlorobenzyl 4-(2-(2-oxo-2,3-dihydrooxazole-5-carboxamido)ethyl)piperazine-1-carboxylate] | 375 nM
CN(CCC1CCN(C(=O)OCc2cc(Cl)cc(Cl)c2)CC1)C(=O)c1noc(=O)[nH]1 [Example 28, 3,5-Dichlorobenzyl 4-(2-(N-methyl-5-oxo-4,5-dihydro-1,2,4-oxadiazole-3-carboxamido)ethyl)piperidine-1-carboxylate] | 786 nM
CN(CCC1CCN(C(=O)OCc2cc(Cl)cc(Cl)c2)CC1)C(=O)c1nn[nH]n1 [Example 29, 3,5-Dichlorobenzyl 4-(2-(N-methyl-2H-tetrazole-5-carboxamido)ethyl)piperidine-1-carboxylate] | 541 nM
CN(CCC1CCN(C(=O)/C=C/c2cc(Cl)cc(Cl)c2)CC1)C(=O)c1c[nH]c(=O)o1 [Example 30, (E)-N-(2-(1-(3-(3,5-Dichlorophenyl)acryloyl)piperidin-4-yl)ethyl)-N-methyl-2-oxo-2,3-dihydrooxazole-5-carboxamide] | 274 nM
O=C(NCCC1CCN(C(=O)/C=C/c2cc(Cl)cc(Cl)c2)CC1)c1c[nH]c(=O)o1 [Example 31, (E)-N-(2-(1-(3-(3,5-Dichlorophenyl)acryloyl)piperidin-4-yl)ethyl)-2-oxo-2,3-dihydrooxazole-5-carboxamide] | 387 nM
